According to US20150174209A1, “INSULIN-PRAMLINTIDE COMPOSITIONS AND METHODS FOR MAKING AND USING THEM” (AMYLIN PHARMACEUTICALS. LLC, priority 2012, published 2015):

Tests used:
type 1 diabetic subjects = assay: Identification of the gastro-intestinal tract (oral glucose absorption) model on Ra meal data of the Woerle T1D database; parameters: species or system human; conditions: 30 μg pramlintide s.c. with meal containing 50 g glucose, 15 type 1 diabetic subjects
Experimental: The database was made up of 15 type 1 diabetic subjects (8 men and 7 women, 37±2 years of age, body weight 76±3 kg) (this is a database for each individual patient participating in the study published in Woerle et al. (December, 2008) Diabetes Care 31(12): 2325-2331, in which pramlintide was given to TI patients and labeled glucose appearance from meal to blood was measured; Woerle reported the effect of pramlintide on gastric emptying and thus glucose appearance in the blood after a meal in patients with type 1 diabetes). “Ra meal data” means the “glucose rate of appearance (Ra) of ingested glucose”; “Ra meal” refers to measurement in response to a meal (ingested), versus after say an intraduodenal injection of glucose.
Subjects were studied on 2 occasions: hyperglycemia with (PRAM) and without (PBO) 30 μg of pramlintide (Amylin Pharmaceuticals, San Diego, Calif.), injected subcutaneously in the lower abdominal wall with the standardized meal containing 50 g of glucose. Over the initial 90 min of the postprandial period, blood samples were taken at 15 min intervals and thereafter at 30-min intervals until completion of the experiment at 330 min.
The model has been numerically identified on placebo Ra meal data using nonlinear weighted least-squares estimator. Identification on pramlintide Ra meal data have required the use of Bayesian estimator in order to achieve a precise estimates of model parameters.
Identification of the gastro-intestinal tract model on Woerle Ra meal data has provided individual parameters estimates for the 15 T1D subjects in presence or absence of pramlintide. Then individual variation for each parameter has been calculated as: […]
We reduced the standard deviations of the variation of the parameters to the 30% of their values due to the small number of subjects available:
Then 100 virtual parameters variations were generated from the distribution: […]

healthy subjects = assay: Glucose and C-peptide minimal models and minimal model of gastrointestinal absorption on aggregated Woerle data; parameters: species or system human
Description: The data published in Woerle et al. (December, 2008) Diabetes Care 31(12): 2325-2331, where a dual tracer approach was used in healthy subjects to estimate the rate of appearance of glucose during the meal and hepatic glucose production during placebo/pramlintide were used in an aggregated fashion (individual data not available, FIG. 13A). […] Subsequently, the minimal model of gastrointestinal absorption (FIG. 37) was used to quantify the changes of the rate of appearance of ingested glucose due to pramlintide. […] This finding was incorporated into the Healthy State Simulator and predictions were successfully tested against Woerle et al data FIG. 38. We also successfully tested the prediction of 2 h postprandial glucose of the Type 1 Diabetes Simulator (illustrated in FIG. 18) (incorporating the new kmax) against the data by Kovatchev B P, et al., Pramlintide reduces the risks associated with glucose variability in type 1 diabetes. Diabetes Technol Ther. 2008 October; 10(5):391-6. The new model was finally incorporated into our model predictive control algorithm and in silico experiment on the Type 1 diabetes.

[1] = test system: patients with type 1 diabetes mellitus; conditions: in vivo, sc; cited from earlier work
[2] = Chemical stability of pramlintide and human insulin co-formulated in SYMLIN placebo buffer pH 4.0 (RP-HPLC purity; FIGS. 35, 36); conditions: for stability in co-formulation: 25 degrees Centigrade, SYMLIN placebo buffer pH 4.0, 13 week study
Experimental: Purity was determined via RP-HPLC and is normalized to time=0 purity.

[3] = cited from earlier work
[4] = pH 2-3; 4C; cited from earlier work

Row | Compound | b (model parameter estimate, mean) (type 1 diabetic subjects) | c (model parameter estimate, mean) (type 1 diabetic subjects) | kabs (model parameter estimate, mean) (type 1 diabetic subjects) | kmin (model parameter estimate, mean) (type 1 diabetic subjects) | kmax (model parameter estimate, mean) (type 1 diabetic subjects; Bayesian estimator) | effect on insulin sensitivity and beta-cell function (healthy subjects; glucose and C-peptide minimal models) | decrease of parameter kmax (maximum gastric emptying) (healthy subjects; minimal model of gastrointestinal absorption) | effect of mixing with short- or long-acting insulin in the same syringe on pharmacodynamics of glucose and pharmacokinetics of insulin or pramlintide [1] | purity loss during storage ([2]; 25 degrees C, insulin in co-formulations) | stability in co-formulation [2] | stability in co-formulation ([2]; listed as insulin) | absorption after subcutaneous injection [3] | duration of action ([3]; subcutaneous injection) | formation of monodesamido-(A21)-insulin [4]
1 | CC[C@H](C)[C@H](NC(=O)[C@@H]1CCCN1C(=O)CNC(=O)[C@H](Cc1ccccc1)NC(=O)[C@H](CC(N)=O)NC(=O)[C@H](CC(N)=O)NC(=O)[C@H](CO)NC(=O)[C@H](CO)NC(=O)[C@H](Cc1c[nH]cn1)NC(=O)[C@@H](NC(=O)[C@H](CC(C)C)NC(=O)[C@H](Cc1ccccc1)NC(=O)[C@H](CC(N)=O)NC(=O)[C@H](C)NC(=O)[C@H](CC(C)C)NC(=O)[C@H](CCCNC(=N)N)NC(=O)[C@H](CCC(N)=O)NC(=O)[C@@H](NC(=O)[C@H](C)NC(=O)[C@@H]1CSSC[C@H](NC(=O)[C@@H](N)CCCCN)C(=O)N[C@@H](CC(N)=O)C(=O)N[C@@H]([C@@H](C)O)C(=O)N[C@@H](C)C(=O)N[C@@H]([C@@H](C)O)C(=O)N1)[C@@H](C)O)C(C)C)C(=O)N[C@@H](CC(C)C)C(=O)N1CCC[C@H]1C(=O)N1CCC[C@H]1C(=O)N[C@H](C(=O)N[C@@H](CC(N)=O)C(=O)N[C@H](C(=O)NCC(=O)N[C@@H](CO)C(=O)N[C@@H](CC(N)=O)C(=O)N[C@H](C(=O)N[C@@H](Cc1ccc(O)cc1)C(N)=O)[C@@H](C)O)C(C)C)[C@@H](C)O [pramlintide] | 0.985 | 0.537 | 0.020 | 0.005 | 0.041 | no effect | ⅔ | did not affect |  |  |  |  |  | 
2 | human insulin: regular human hormone with 21 amino acid A chain (SEQ ID NO:2) and 30 amino acid B chain (SEQ ID NO:3) |  |  |  |  |  |  |  |  | 40% | rapidly degrades | unacceptable degradation | 15 to 60 min | 5 to 9 h | 1-2 % per month
